In patent US5686458A, “Quinazoline deriviates for treating peptic ulcer” (Yuhan Corporation, priority 1992, dated 1997):
“And” between values parts separate entries of the source, which are not always exact repeats. Equal values may be shown once. Read-outs that look alike come from different tables or passages of the source.

Key:
[1] = biological target: T1, Proton Pump (H^+ /K^+ ATPase) (Oryctolagus cuniculus, UniProt P27112); assay: Inhibition of Proton Pump (H+/K+ ATPase) Activity, in vitro enzyme reaction (Experiment 1); type: biochemical, New Zealand white rabbit
T1 construct: The microsomes thus obtained were used as an enzyme source of the in vitro enzyme reaction study of proton pump; from tissue; host or cells: rabbit stomach, mucosal scrapings, microsomes (180,000 g pellet)
Procedure, shortened: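 Rabbit gastric mucosal microsomes (100 μg/ml) in 50 mM Tris-HCl pH 7.2 with 8 mM MgCl2, 100 mM KCl and 20 mM NH4Cl were preincubated with compound for 15 min at 37 °C. Reaction ran 30 min at 37 °C with 6.7 mM ATP; released phosphate was measured. K+-stimulated activity (Mg/K minus Mg alone) gave IC50 via Litchfield-Wilcoxon.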

[2] = tested on: gastric secretion stimulated by histamine; assay: Anti-secretory effects when gastric secretion is stimulated by histamine (Experiment 3-1); type: in vivo, Sprague-Dawley male rats; details: intravenous; for ED50: Rattus norvegicus, read-out: ED50, gastric secretion inhibition
Method: In accordance with the method [see Ghosh and Shild, et al., British Journal of pharmacology 13:54-61 (1958)], anti-secretory effects of the test substances were studied in this Experiment. Sprague-Dawley male rats having a body weight of 200±20 g were divided into 3 groups, Group 1 to be administered with the compound of Example 34, Group 2 to be administered with SK&F96067[see Keeling, D. […] The rats of each Group, deprived of food for 24 hours before the experiment with free access to water, were anesthetized by intraperitoneally administering of 1.5 g/kg of 20% aqueous urethane solution and positioned on the test plate which was heated and maintained at 37° C. The anesthetized rats were cannulated at the right jugular vein for the administration of the test compounds and the left jugular vein for the administration of stimulating substances. After an abdominal incision, tubes were inserted into the esophagus and duodenum, each of which was connected with saline in a thermostat and a fraction collector. […] To the left jugular vein, histamine was administered as a gastric secretion stimulator. […] The gastric secretion inhibition (%) of the test compounds was calculated from the following equation: The gastric secretion inhibition (%) of the test compounds =(A-C)/(A-B)×100 . . . (IV) in which […]

[3] = biological target: T2, H^+ /K^+ ATPase, gastric vesicles (Sus scrofa, UniProt P19156); assay: Reversibility of inhibition, Dilution and Washout method (Experiment 4-3); type: biochemical, pig; details: for Reversibility of the inhibition of the enzyme activity: conclusion from Table 4; for Inhibition of H+/K+ ATPase activity after Dilution and Washout: diluted 50 times; for Inhibition of H+/K+ ATPase activity after Dilution and Washout / Inhibition of H+/K+ ATPase activity before Dilution and Washout: pH 6.4, Example 34 at 6 μM, omeprazole and SK&F96067 at 60 μM
T2 construct: Gastric vesicles were prepared from pig stomach; from tissue; host or cells: pig stomach, lyophilized gastric vesicles
Method: The vesicles were lyophilized and kept at -70° C.
To all […] groups, was added 100 μl of lyophilized vesicles prepared in Experiment 4-1 at the concentration of 100 μg protein 1 ml. Then, 5 mM Pipes/Tris buffer(pH 6.4 ) was added to the three groups until the volume of test tubes became 150 μl. After the preincubation for 15 minutes, H^+ /K^+ ATPase activity was measured in accordance with the same procedures as in Experiment 4-2. The concentrations of the test substances as indicated above are the final concentrations.
After the completion of preincubation, each group was diluted 50 times with 5 mM Pipes/Tris buffer(pH 6.4), and then centrifuged for 60 minutes by means of Beckman ultracentrifuge(Model L8-80). The supernatant was discarded and the pellet was suspended with 5 mM Pipes/Tris buffer pH 6.4 until the volume became the same as the preincubation volume.

T2 sequence (P19156 2-1034 limits assumed): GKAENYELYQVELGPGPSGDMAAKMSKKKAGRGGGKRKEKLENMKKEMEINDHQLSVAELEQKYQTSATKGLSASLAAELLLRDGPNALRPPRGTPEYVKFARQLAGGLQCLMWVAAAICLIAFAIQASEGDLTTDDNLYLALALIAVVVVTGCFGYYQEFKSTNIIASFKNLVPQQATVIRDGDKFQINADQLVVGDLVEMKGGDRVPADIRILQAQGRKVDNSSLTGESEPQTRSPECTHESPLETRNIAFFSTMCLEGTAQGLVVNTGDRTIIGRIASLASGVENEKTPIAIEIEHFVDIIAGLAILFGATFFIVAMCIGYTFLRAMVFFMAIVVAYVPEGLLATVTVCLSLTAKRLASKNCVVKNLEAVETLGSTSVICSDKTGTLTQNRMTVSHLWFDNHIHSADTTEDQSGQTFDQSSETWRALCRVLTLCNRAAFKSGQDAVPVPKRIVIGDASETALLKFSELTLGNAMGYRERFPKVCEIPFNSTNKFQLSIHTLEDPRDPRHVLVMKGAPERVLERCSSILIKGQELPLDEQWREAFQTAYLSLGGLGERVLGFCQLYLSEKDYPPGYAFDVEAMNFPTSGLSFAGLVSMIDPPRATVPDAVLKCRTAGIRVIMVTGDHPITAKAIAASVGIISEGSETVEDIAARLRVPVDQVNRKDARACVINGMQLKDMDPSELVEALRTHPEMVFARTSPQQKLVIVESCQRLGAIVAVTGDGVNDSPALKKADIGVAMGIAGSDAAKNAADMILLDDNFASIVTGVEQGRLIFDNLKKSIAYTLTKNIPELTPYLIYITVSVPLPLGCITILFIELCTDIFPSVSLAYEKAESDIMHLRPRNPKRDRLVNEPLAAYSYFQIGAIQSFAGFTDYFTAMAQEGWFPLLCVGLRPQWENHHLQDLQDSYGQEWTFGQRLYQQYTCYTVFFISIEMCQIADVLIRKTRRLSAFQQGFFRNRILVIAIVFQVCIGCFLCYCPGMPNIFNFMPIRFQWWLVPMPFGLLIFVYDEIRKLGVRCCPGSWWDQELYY
T2 sequence (P18434 whole entry partner): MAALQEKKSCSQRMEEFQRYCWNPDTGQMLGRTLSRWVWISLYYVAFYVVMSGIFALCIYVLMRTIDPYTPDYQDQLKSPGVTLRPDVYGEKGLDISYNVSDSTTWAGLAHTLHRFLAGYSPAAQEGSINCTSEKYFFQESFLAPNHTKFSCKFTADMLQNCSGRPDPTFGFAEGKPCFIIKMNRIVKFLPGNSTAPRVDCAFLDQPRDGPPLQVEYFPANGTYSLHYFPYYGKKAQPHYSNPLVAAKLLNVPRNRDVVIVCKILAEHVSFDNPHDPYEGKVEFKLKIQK
T1 sequence (P27112 whole entry): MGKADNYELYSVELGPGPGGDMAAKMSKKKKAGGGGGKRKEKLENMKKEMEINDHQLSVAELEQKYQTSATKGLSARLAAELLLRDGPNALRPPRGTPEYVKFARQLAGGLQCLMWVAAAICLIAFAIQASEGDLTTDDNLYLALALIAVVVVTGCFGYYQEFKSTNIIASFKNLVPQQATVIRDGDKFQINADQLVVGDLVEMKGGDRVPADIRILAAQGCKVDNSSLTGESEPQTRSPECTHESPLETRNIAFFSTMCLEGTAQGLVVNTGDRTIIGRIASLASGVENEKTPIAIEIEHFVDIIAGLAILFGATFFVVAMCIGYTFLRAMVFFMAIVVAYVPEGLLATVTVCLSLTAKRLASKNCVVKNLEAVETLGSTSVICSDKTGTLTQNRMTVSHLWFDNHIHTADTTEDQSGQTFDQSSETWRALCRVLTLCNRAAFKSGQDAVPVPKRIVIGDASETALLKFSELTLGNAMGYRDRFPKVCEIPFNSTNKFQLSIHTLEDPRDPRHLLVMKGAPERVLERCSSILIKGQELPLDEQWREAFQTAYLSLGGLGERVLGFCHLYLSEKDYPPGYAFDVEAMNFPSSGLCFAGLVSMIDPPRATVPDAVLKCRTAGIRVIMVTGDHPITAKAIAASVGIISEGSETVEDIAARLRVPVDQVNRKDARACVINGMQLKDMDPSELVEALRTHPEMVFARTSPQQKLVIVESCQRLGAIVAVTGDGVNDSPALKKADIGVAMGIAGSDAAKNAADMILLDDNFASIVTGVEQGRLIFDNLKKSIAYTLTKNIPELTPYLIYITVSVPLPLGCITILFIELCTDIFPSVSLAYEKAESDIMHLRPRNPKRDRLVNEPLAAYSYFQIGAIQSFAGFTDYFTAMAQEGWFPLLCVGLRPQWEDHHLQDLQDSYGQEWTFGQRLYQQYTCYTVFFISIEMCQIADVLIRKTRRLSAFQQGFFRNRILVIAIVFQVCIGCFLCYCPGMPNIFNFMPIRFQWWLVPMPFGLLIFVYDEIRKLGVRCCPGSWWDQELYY
T1 sequence (P18597 whole entry partner): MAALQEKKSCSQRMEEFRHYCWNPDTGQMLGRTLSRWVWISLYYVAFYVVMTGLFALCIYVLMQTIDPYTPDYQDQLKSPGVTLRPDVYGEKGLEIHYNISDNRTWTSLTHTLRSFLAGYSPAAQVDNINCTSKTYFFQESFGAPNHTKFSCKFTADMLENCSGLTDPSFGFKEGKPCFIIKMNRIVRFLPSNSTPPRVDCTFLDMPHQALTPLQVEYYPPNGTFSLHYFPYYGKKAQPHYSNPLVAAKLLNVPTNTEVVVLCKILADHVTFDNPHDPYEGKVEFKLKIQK

| Structure (SMILES) | Effect ratio ([1]; IC50 of Omeprazole / IC50 of test compound) | IC50 ([1]; K+-stimulated H+/K+ ATPase activity, rabbit gastric microsomes, pH 7.2, 37° C., 15 min prereaction, 30 min reaction, read-out: IC50 of test compound, inhibition (50%) of the proton pump activity) [µM] | The gastric secretion inhibition (%) ([2]; 0.5 mg/kg) | The gastric secretion inhibition (%) ([2]; 1.0 mg/kg) | The gastric secretion inhibition (%) ([2]; 3.0 mg/kg) | ED50 [2] [mg/kg] | Reversibility of the inhibition of the enzyme activity [3] | Inhibition of H+/K+ ATPase activity after Dilution and Washout [3] [%] | Inhibition of H+/K+ ATPase activity before Dilution and Washout [3] [%] | IC50 ([1]; comparative compound, value printed on the line of each test compound, read-out: IC50 of Omeprazole, inhibition (50%) of the proton pump activity) | The gastric secretion inhibition (%) ([2]; 0.1 mg/kg) | The gastric secretion inhibition (%) ([2]; 0.3 mg/kg) |
| --- | --- | --- | --- | --- | --- | --- | --- | --- | --- | --- | --- | --- |
| COc1cccc2c(N3CCc4ccccc4C3C)nc(Nc3ccc(F)cc3C)nc12.Cl (centres unmarked) [Example 34, 8-Methoxy-2-(4-Fluoro-2-Methyl-Phenylamino)-4-(1-Methyl-1,2,3,4-Tetrahydroisoquinoline-2-Yl)Quinazoline Hydrochloride] | 5.45 | 1.7 | 44.4 | 52.0 | 76.5 | 0.9 | reversible | 16 | 84 | – | – | – |
| COc1ccc2[nH]c([S+]([O-])Cc3ncc(C)c(OC)c3C)nc2c1 (centres unmarked) [Omeprazole, omeprazole, reference compound] | – | – | – | 102.3 | – | 0.29 | irreversible | 67 | 80 | 9.5 µM and 9.3 µM | 8.0 | 49.4 |
